This passage reports IC50 results from US12195482B1 (Arcus Biosciences, Inc., priority 2022, dated 2025).

pIC50: −log10 of the molar value.

Experiment [1] deals with T1, Axl (Homo sapiens, UniProt P30530).
T1 sequence (P30530 26-894): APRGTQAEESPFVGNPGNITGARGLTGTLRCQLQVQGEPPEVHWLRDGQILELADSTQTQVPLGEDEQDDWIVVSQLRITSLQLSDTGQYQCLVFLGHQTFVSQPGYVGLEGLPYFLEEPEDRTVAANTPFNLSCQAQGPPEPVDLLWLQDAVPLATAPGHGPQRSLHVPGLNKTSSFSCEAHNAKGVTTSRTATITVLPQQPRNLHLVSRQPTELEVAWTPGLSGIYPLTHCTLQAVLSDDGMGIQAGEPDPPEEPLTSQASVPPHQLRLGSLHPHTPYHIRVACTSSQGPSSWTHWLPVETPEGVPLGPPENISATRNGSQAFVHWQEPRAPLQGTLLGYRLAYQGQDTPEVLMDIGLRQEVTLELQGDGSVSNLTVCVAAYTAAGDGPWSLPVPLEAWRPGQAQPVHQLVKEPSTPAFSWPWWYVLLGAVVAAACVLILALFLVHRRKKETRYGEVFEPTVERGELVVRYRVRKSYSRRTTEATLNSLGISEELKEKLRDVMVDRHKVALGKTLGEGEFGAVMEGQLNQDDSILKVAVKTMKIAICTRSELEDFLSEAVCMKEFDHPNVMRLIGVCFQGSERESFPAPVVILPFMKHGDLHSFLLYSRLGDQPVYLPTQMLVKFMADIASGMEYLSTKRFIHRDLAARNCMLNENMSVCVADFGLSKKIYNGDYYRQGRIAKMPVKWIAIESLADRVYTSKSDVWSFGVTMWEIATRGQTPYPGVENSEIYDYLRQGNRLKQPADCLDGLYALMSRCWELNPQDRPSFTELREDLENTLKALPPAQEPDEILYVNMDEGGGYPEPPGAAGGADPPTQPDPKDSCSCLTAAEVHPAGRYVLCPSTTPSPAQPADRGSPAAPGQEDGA
In words: Axl NanoBRET intracellular kinase assay (intracellular binding, K-5 tracer displacement). Also on record: host or cells: HEK-293. The following applies: HEK-293 cells transfected with Axl-NanoLuc, 0.35 μM K-5 NanoBRET tracer; read-out: Cell Binding AXL. On the procedure:
Measuring Intracellular Binding of Axl Inhibitors
Axl NanoBRET™ intracellular kinase assay (Promega, N2540) was performed according to manufacturer's recommendation. In brief, HEK-293 cells are transiently transfected with Ax1-NanoLuc fusion vector (Promega, NV1071), utilizing Fugene HD transfection reagent (Promega, E2311) a day before experiment following manufacturer's recommendation.
The day of the assay, the cells were collected and resuspended in Opti-MEM media (ThermoFisher, 31985070) at 2e5 cells/mL concentration. Testing compounds were serial diluted and dispensed into a white 384 well polystyrene plate at 200 nL in 100% DMSO. 40 μL of resuspended cells is then added per well for a final condition of 8K cells/well with 0.5% DMSO. After one-hour compound pre-incubation at 37° C. and 5% CO2, cells were further incubated with 0.35 μM K-5 NanoBRET tracer for two-hours at 37° C. and 5% CO2. […] of 3× substrate plus Inhibitor solution was prepared according to kits manual and added to the cells followed by a 30 second pulse centrifugation spin. The plate was then immediately read utilizing an Envision (Perkin Elmer) plate reader. The BRET signal is measured by taking the ratio of the emissions reading at 610 nm and 450 nm. Compound binding is based on the decrease BRET signal caused by the displacement of the K-5 tracer. […] ICso value of compounds was determined by 4-parameter non-linear regression fitting of percent activity in GraphPad Prism software.

Experiment [2] deals with T1, Axl. In words: Biochemical potency, HTRF KinEASE-TK kinase assay. Also on record: purchased Invitrogen. The settings on record: 5 nM AXL, 700 μM ATP. Summed up: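 Phosphorylation of a biotinylated tyrosine-kinase peptide (800 nM) by AXL (5 nM) or TYRO3/MER (1 nM) is measured at 700 µM ATP after 2 h at room temperature, following 1 h enzyme–compound preincubation. Signal is the time-resolved FRET ratio, converted to percent activity.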

`CN(C)C(=O)c1ccccc1-c1ccc(-c2c[nH]c3ncc(-c4ccc5c(c4)CC[C@@H](N4C6COCC4C6)CC5)cc23)cn1` [Example 170, N,N-Dimethyl-2-(5-{5-[(7S)-7-{3-oxa-6-azabicyclo[3.1.1]heptan-6-yl}-6,7,8,9-tetrahydro-5H-benzo[7]annulen-2-yl]-1H-pyrrolo[2,3-b]pyridin-3-yl}pyridin-2-yl)benzamide]: the pIC50 on Axl [1] and against Axl [2] was more than 7.00 in each case.

As for `O=C(c1cccnc1-c1ccc(-c2c[nH]c3ncc(-c4ccc5c(c4)CC[C@@H](N4C6COCC4C6)CC5)cc23)cc1)N1CCCC1` [Example 171, 6-[(7S)-2-(3-{4-[3-(Pyrrolidine-1-carbonyl)pyridin-2-yl]phenyl}-1H-pyrrolo[2,3-b]pyridin-5-yl)-6,7,8,9-tetrahydro-5H-benzo[7]annulen-7-yl]-3-oxa-6-azabicyclo[3.1.1]heptane], the pIC50 on Axl [1] and at Axl [2] was more than 7.00 each time.

As to `Cc1cccnc1-c1ccc(-c2c[nH]c3ncc(-c4ccc5c(c4)CC[C@@](C)(N4CCC[C@H]4C)CC5)cc23)cc1` [Example 172, 3-Methyl-2-(4-{5-[(7S)-7-methyl-7-[(2R)-2-methylpyrrolidin-1-yl]-6,7,8,9-tetrahydro-5H-benzo[7]annulen-2-yl]-1H-pyrrolo[2,3-b]pyridin-3-yl}phenyl)pyridine], the pIC50 on Axl [1] and against Axl [2] was more than 7.00 in each case.

`Cc1cccnc1-c1ccc(-c2c[nH]c3ncc(-c4ccc5c(c4)CC[C@@H](N4CCCC4)CC5)cc23)cc1` [Example 173, 3-Methyl-2-(4-{5-[(7S)-7-(pyrrolidin-1-yl)-6,7,8,9-tetrahydro-5H-benzo[7]annulen-2-yl]-1H-pyrrolo[2,3-b]pyridin-3-yl}phenyl)pyridine]: the pIC50 on Axl [1] and at Axl [2] was more than 7.00 in each case.

For `Cc1cncnc1-c1ccc(-c2n[nH]c3ncc(-c4ccc5c(c4)CC[C@@H](N4C6COCC4C6)CC5)cc23)cc1` [Example 174, 6-[(7S)-2-{3-[4-(5-Methylpyrimidin-4-yl)phenyl]-1H-pyrazolo[3,4-b]pyridin-5-yl}-6,7,8,9-tetrahydro-5H-benzo[7]annulen-7-yl]-3-oxa-6-azabicyclo[3.1.1]heptane], the pIC50 on Axl [1] and on Axl [2] was more than 7.00 each time.

For the compound `Cc1nccnc1-c1ccc(-c2n[nH]c3ncc(-c4ccc5c(c4)CC[C@@H](N4C6COCC4C6)CC5)cc23)cc1` [Example 175, 6-[(7S)-2-{3-[4-(3-Methylpyrazin-2-yl)phenyl]-1H-pyrazolo[3,4-b]pyridin-5-yl}-6,7,8,9-tetrahydro-5H-benzo[7]annulen-7-yl]-3-oxa-6-azabicyclo[3.1.1]heptane], the pIC50 on Axl [1] and against Axl [2] was more than 7.00 throughout.

For `Cc1ccnnc1-c1ccc(-c2n[nH]c3ncc(-c4ccc5c(c4)CC[C@@H](N4C6COCC4C6)CC5)cc23)cc1` [Example 176, 6-[(7S)-2-{3-[4-(4-Methylpyridazin-3-yl)phenyl]-1H-pyrazolo[3,4-b]pyridin-5-yl}-6,7,8,9-tetrahydro-5H-benzo[7]annulen-7-yl]-3-oxa-6-azabicyclo[3.1.1]heptane], the pIC50 at Axl [1] and against Axl [2] was more than 7.00 each time.
